This note sets out measurements from US20250298000A1, “PREPARATION OF CULTURE MEDIUM AND USE THEREFOR IN WATER TOXICITY CO[…]” (CHANGCHUN INSTITUTE OF APPLIED CHEMISTRY, CHINESE ACADEMY …, priority 2022, published 2025).

Each structure is given as a SMILES string.

The assay concerns Bacillus subtilis. Nature of the assay: Colorimetric detection of water toxicity with Bacillus subtilis cultured in CM-Fe medium and potassium ferricyanide (Prussian blue, absorbance at 690 nm, 96-well plate). To be noted: bacterial suspension OD600=2, 8 mM potassium ferricyanide, 20 min reaction; for detection limit (toxicant concentration discerned with naked eyes by color difference): sample photographs. Type of assay: cell-based. The protocol:
The inhibition rate is specifically calculated as: Inhibition %=(1−Abstox/Abscon)×100(1); • wherein, Abstox represents the peak value of the ultraviolet absorption spectrum of the sample to be detected at 690 nm, and Abscon represents the peak value of the ultraviolet absorption spectrum of the standard sample at 690 nm; • the IC50 value is calculated by: taking a concentration of toxicant in the water to be detected as the abscissa and the inhibition rate as the ordinate, drawing a curve, and fitting to obtain the IC50 value.
20 g of glucose, 15 g of peptone, 5 g of NaCl, 0.5 g of yeast extract and 0.001-10 g of ferric citrate were weighed, mixed and ground into powder by a dry grinding method in a ball mill to obtain a new culture medium CM-Fe.
1-100 g of CM and 1-100 g of CM-Fe culture media were added into two 1 L beakers respectively, adjusted to a volume of 1 L by adding deionized water, stirred, ultrasonicated, dissolved, and aliquoted in six 500 mL triangular flasks (3 for each culture medium), which were sealed with a sterile filtration sealing film, sterilized with high-temperature and high-pressure at 121° C. (98 kPa) for 5-40 min, and cooled down for later use.
Bacillus subtilis was inoculated into sterilized CM and CM-Fe culture media respectively, and cultured in a constant temperature shaker at 50-300 rpm at 37° C. for 8-30 h. The cultured bacterial liquid was centrifuged at 3000-10000 rpm for 1-20 min, then centrifuged and washed twice with 0.1-30% NaCl solution to remove the culture medium. Finally, Bacillus subtilis was resuspended in 0.1-30% NaCl solution and placed at 0-30° C. for later use.
100 μL of two suspensions of bacteria with OD600=2, 50 μL of Cu^2+ at varying concentrations and 50 μL of 8 mM potassium ferricyanide were mixed in the wells of a 96-well plate and reacted for 20 min. […] At low Cu^2+, concentrations, the color of the toxic samples was similar to that of the non-toxic samples. […] The final concentrations of toxicants from top to bottom were 0 mg/L, 0.49 mg/L, 0.98 mg/L, 1.95 mg/L, 3.9 mg/L, 7.8 mg/L and 15.63 mg/L, respectively. […]

Consider `[Cu+2]` [Cu^2+], for which the “detection limit (toxicant concentration discerned with naked eyes by color difference)” value was found to be 3.9 mg/L. For the same compound, the “IC20 fitted from inhibition rate curve” value (peak at 690 nm) amounted to 2.4 µg/mL. Take `[Hg+2]` [Hg^2+]: the “detection limit (toxicant concentration discerned with naked eyes by color difference)” value amounted to 0.49 mg/L.
